These results are taken from PubChem BioAssay (NCI).

Some test systems named below: LOX IMVI melanoma; HOP-92 NSCLC; SNB-75 CNS; NCI-H460 lung; XF 498 CNS; UO-31 renal; SF-295 CNS; OVCAR-3 ovarian; SF-268 CNS; HCT-116 colon; DMS 273 small cell lung; CAKI-1 renal; HCC-2998 colon.
Common to all, as to assay: growth of human tumour cells (NCI), 48 h

Converted amounts (≈) assume the structure as drawn.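 Following 48 hours of exposure in 96-well plates, responses at five concentrations were used to interpolate endpoints linearly. At the GI50, growth is halved. TGI: concentration producing complete growth inhibition.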

For `CC(C)c1oc(=O)cc2c1C(O)C1OC(=O)C3(C)C(O)C4OC4C2(C)C13` (centres undefined), the TGI in the experiment on LOX IMVI melanoma amounted to 5.77 µM; in the experiment on HOP-92 NSCLC, 2.38 µM; in the experiment with SNB-75 CNS it was 7.92 µM; in the experiment with NCI-H460 lung, 9.73 µM; in the experiment on XF 498 CNS it was 1.95 µM; in the experiment with UO-31 renal it was 15.5 µM. For the same compound, the TGI in the experiment with SF-295 CNS worked out at 12.8 µM; in the experiment on OVCAR-3 ovarian it was 6.42 µM; in the experiment on SF-268 CNS, 25 µM; in the experiment with HCT-116 colon, 9.99 µM; in the experiment with DMS 273 small cell lung, 5.93 µM; with CAKI-1 renal, 9.39 µM. Besides, the TGI with HCC-2998 colon stood at 7.92 µM.
As to `Cc1nc2nc(C)n(CCN3CCOCC3)c(=O)c2c(-c2cccc([N+](=O)[O-])c2)c1C(=O)CCCCCCCCCCN1CCC(c2ccccc2)(c2ccccc2)CC1`, the GI50 with HOP-92 NSCLC is 0.0976 µg/mL (≈ 0.12 µM); in the experiment with UO-31 renal, 1.71 µg/mL (≈ 2.1 µM); in the experiment on SF-295 CNS, 0.78 µg/mL (≈ 0.96 µM); in the experiment on OVCAR-3 ovarian it was 2.21 µg/mL (≈ 2.72 µM); with SF-268 CNS it was 2.26 µg/mL (≈ 2.78 µM); in the experiment with HCT-116 colon, 1.63 µg/mL (≈ 2 µM). The GI50 in the experiment with HCC-2998 colon was 2.37 µg/mL (≈ 2.91 µM). Moreover, the TGI in the experiment on HOP-92 NSCLC came to 1.25 µg/mL; in the experiment on UO-31 renal it was 3.52 µg/mL; with SF-295 CNS, 2.65 µg/mL; with OVCAR-3 ovarian, 4.19 µg/mL; in the experiment on SF-268 CNS, 4.26 µg/mL; in the experiment on HCT-116 colon it was 3.45 µg/mL. For the same compound, the TGI in the experiment on HCC-2998 colon was found to be 4.56 µg/mL.
`O=C=C=P(c1ccccc1)(c1ccccc1)c1ccccc1`: the TGI was above 100 µM in the experiment with LOX IMVI melanoma; 85.1 µM in the experiment with HOP-92 NSCLC; 83.6 µM in the experiment on SNB-75 CNS; above 100 µM in the experiment on NCI-H460 lung; 89.7 µM in the experiment on XF 498 CNS; above 100 µM in the experiment with UO-31 renal. Further, the TGI in the experiment with SF-295 CNS, in the experiment with SF-268 CNS, in the experiment on HCT-116 colon, in the experiment with DMS 273 small cell lung, in the experiment on CAKI-1 renal and in the experiment with HCC-2998 colon was above 100 µM throughout.
